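Exposure lasted 48 hours, with cells grown in 96-well plates and compounds tested at five concentrations. GI50 = concentration required for 50% inhibition of growth.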 Activity calls are given as the source filed them. Cut-off read from the data, not from the text of the source: active = GI50 up to about 1.1 µM and inactive = higher.
Assays:
Assay in all cases: NCI tumour cell line growth inhibition, 48 h
[1] = tested on: U-251
[2] = tested on: OVCAR-5
[3] = tested on: SK-MEL-2
[4] = tested on: NCI-H226
[5] = tested on: SN12C
[6] = tested on: SF-295
[7] = tested on: SW-620
[8] = tested on: LOX IMVI
[9] = tested on: BT-549
[10] = tested on: M14
[11] = tested on: HCT-15
[12] = tested on: Malme-3M
[13] = tested on: CAKI-1
[14] = tested on: HT-29
[15] = tested on: OVCAR-4
[16] = tested on: SK-OV-3
[17] = tested on: K562
[18] = tested on: TK-10
[19] = tested on: COLO 205
[20] = tested on: UACC-257
[21] = tested on: CCRF-CEM
[22] = tested on: A549
[23] = tested on: NCI-H522
[24] = tested on: OVCAR-3
[25] = tested on: ACHN
[26] = tested on: SK-MEL-28
[27] = tested on: RXF 393
[28] = tested on: SK-MEL-5
[29] = tested on: IGROV-1
[30] = tested on: MDA-MB-231
[31] = tested on: HCC 2998
[32] = tested on: MOLT-4
[33] = tested on: SNB-19
[34] = tested on: MDA-N
[35] = tested on: A498
[36] = tested on: EKVX
[37] = tested on: T47D
[38] = tested on: PC-3
[39] = tested on: HOP-92
[40] = tested on: UO-31
[41] = tested on: MCF7
[42] = tested on: OVCAR-8
[43] = tested on: MDA-MB-435
[44] = tested on: NCI-H23
[45] = tested on: HL-60
[46] = tested on: Hs-578T
[47] = tested on: UACC-62
[48] = tested on: SF-268
[49] = tested on: KM12
[50] = tested on: SNB-75
[51] = tested on: NCI-H460
[52] = tested on: 786-0
[53] = tested on: DU-145
[54] = tested on: SF-539
[55] = tested on: HCT-116
[56] = tested on: NCI/ADR-RES

## CCC1(CC)CC(=NNS(=O)(=O)c2ccc(C)cc2)C1
[1]
  GI50: > 100 µM (inactive)
[2]
  GI50: > 100 µM (inactive)
[3]
  GI50: > 100 µM (inactive)
[4]
  GI50: > 100 µM (inactive)
[5]
  GI50: > 100 µM (inactive)
[6]
  GI50: > 100 µM (inactive)
[7]
  GI50: > 100 µM (inactive)
[8]
  GI50: > 100 µM (inactive)
[9]
  GI50: > 100 µM (inactive)
[10]
  GI50: > 100 µM (inactive)
[11]
  GI50: > 100 µM
[12]
  GI50: > 100 µM (inactive)
[13]
  GI50: > 100 µM (inactive)
[14]
  GI50: > 100 µM (inactive)
[15]
  GI50: > 100 µM (inactive)
[16]
  GI50: > 100 µM (inactive)
[17]
  GI50: > 100 µM (inactive)
[18]
  GI50: > 100 µM (inactive)
[19]
  GI50: > 100 µM (inactive)
[20]
  GI50: > 100 µM (inactive)
[21]
  GI50: > 100 µM (inactive)
[22]
  GI50: > 100 µM (inactive)
[23]
  GI50: > 100 µM (inactive)
[24]
  GI50: > 100 µM (inactive)
[25]
  GI50: > 100 µM (inactive)
[26]
  GI50: > 100 µM (inactive)
[27]
  GI50: > 100 µM (inactive)
[28]
  GI50: > 100 µM (inactive)
[29]
  GI50: > 100 µM (inactive)
[30]
  GI50: > 100 µM (inactive)
[31]
  GI50: > 100 µM (inactive)
[32]
  GI50: > 100 µM (inactive)
[33]
  GI50: > 100 µM (inactive)
[34]
  GI50: > 100 µM (inactive)
[35]
  GI50: > 100 µM (inactive)
[36]
  GI50: > 100 µM (inactive)
[37]
  GI50: > 100 µM (inactive)
[38]
  GI50: > 100 µM (inactive)
[39]
  GI50: > 100 µM (inactive)
[40]
  GI50: > 100 µM (inactive)
[41]
  GI50: > 100 µM (inactive)
[42]
  GI50: > 100 µM (inactive)
[43]
  GI50: > 100 µM (inactive)
[44]
  GI50: > 100 µM (inactive)
[45]
  GI50: > 100 µM (inactive)
[46]
  GI50: > 100 µM (inactive)
[47]
  GI50: > 100 µM (inactive)
[48]
  GI50: > 100 µM (inactive)
[49]
  GI50: > 100 µM (inactive)
[50]
  GI50: > 100 µM (inactive)
[51]
  GI50: > 100 µM (inactive)
[52]
  GI50: > 100 µM (inactive)
[53]
  GI50: > 100 µM (inactive)
[54]
  GI50: > 100 µM (inactive)
[55]
  GI50: > 100 µM (inactive)
[56]
  GI50: > 100 µM (inactive)
